Experiment: mn = molality of the nth substance listed, in mol/kg
Settings: 100 kPa, Liquid; for speed of sound: Frequency=3 MHz, Sing-around technique in a fixed-path interferometer; for mass density: Vibrating tube method

N.O=P(O)(O)O [ammonium dihydrogen phosphate] + O
Settings	mass density, 288.15 K [kg/m3]	mass density, 298.15 K [kg/m3]	mass density, 308.15 K [kg/m3]	mass density, 318.15 K [kg/m3]	speed of sound, 288.15 K [m/s]	speed of sound, 298.15 K [m/s]	speed of sound, 308.15 K [m/s]	speed of sound, 318.15 K [m/s]
m1 = 0.5	1029.89	1026.93	1023.68	1019.89	1507.2	1534.7	1555.7	1570.8
m1 = 1	1057.21	1054.11	1050.64	1046.76	1544.3	1569.5	1588.6	1602.3
m1 = 1.5	1082.49	1079.39	1075.63	1071.69	1579.5	1602.2	1619.5	1631.7
m1 = 2	1105.65	1102.5	1098.68	1094.7	1613.6	1634.1	1649.6	1660.4

Source: the NIST ThermoML archive (doi:10.1021/acs.jced.7b00257)
